Test results taken from US20220024921A1, “1,3,4-OXADIAZOLONE COMPOUND AND PHARMACEUTICAL” (NIPPON SHINYAKU CO., LTD., priority 2018, published 2022).

What was measured:
[1] = target: PIM3 transgenic cells (Ba/F3) (Homo sapiens, UniProt Q86V86); assay: Proliferation inhibitory effect on PIM3 transgenic cells; assay type: cell-based, mouse; conditions: proliferation inhibition, 72 hours, Cell Counting Kit-8, read-out: PIM3 IC50
Source text: (§1) Human PIM1, 2, and 3 genes were inserted into the multi-cloning sites of retrovirus expression vectors pMYs-IRES-GFP, respectively, to prepare gene transfer vectors. Then, each gene transfer vector was introduced into packaging cells PLAT-E derived from a human fetal kidney cell line in the logarithmic growth phase, using a transfection reagent (FuGENE6, Promega Corporation). Since the culture supernatant of PLAT-E after gene transfer contained virus particles for gene transfer, the culture supernatant was collected and used as a medium for gene transfer. The medium for gene transfer was added to a plate coated with RetroNectin, and the plate was incubated to attach the virus particles to the plate. Then, a mouse pro-B cell line Ba/F3 in the logarithmic growth phase was seeded on the plate and infected with the virus to prepare PIM1, 2, or 3 transgenic cells that proliferate in a PIM 1, 2, or 3-dependent manner. The expression of PIM1, 2, or 3 protein in each cell was confirmed by Western blotting.
(§2) Each test substance was prepared to 10 mM with dimethylsulfoxide (DMSO), and diluted with DMSO so as to have concentrations of 3000, 1000, 300, 100, 30, 10, 3, and 1 μM. Moreover, each dilution was further diluted 10-fold with distilled water to prepare a test substance solution.
(§3) PIM1, 2, 3-expressing cells were seeded on a 96-well plate, and each test substance solution prepared the next day was added such that final concentrations were 10000, 3000, 1000, 300, 100, 30, 10, 3, and 1 nM. 72 hours after the addition, 10 μL of Cell Counting Kit-8 (DOJINDO LABORATORIES) was added to each well. After incubation for 1 to 4 hours, absorbance OD450 at 450 nm was measured. In addition, absorption OD650 at 650 nm as a reference wavelength was measured.
(§4) OD450-OD650 for each condition was calculated, and then the inhibition rates when OD450-OD650 of negative control (DMSO only) and OD450-OD650 of Blank (without cells) were set to 0% and 100%, respectively, were calculated. Then, non-linear regression analysis was performed for logarithmic dose and inhibition rate using a two-parameter logistic model to estimate IC50 values.
(§5) For the compounds with the following Example numbers, in addition to the above proliferation inhibitory effect on PIM1 transgenic cells, the proliferation inhibitory effect on PIM2 transgenic cells and the proliferation inhibitory effect on PIM3 transgenic cells were calculated as IC50.

[2] = target: PIM2 transgenic cells (Ba/F3) (Homo sapiens, UniProt Q9P1W9); assay: Proliferation inhibitory effect on PIM2 transgenic cells; assay type: cell-based, mouse; conditions: proliferation inhibition, 72 hours, Cell Counting Kit-8, read-out: PIM2 IC50
PIM2 transgenic cells (Ba/F3), sequence (Q9P1W9 whole entry, change not shown): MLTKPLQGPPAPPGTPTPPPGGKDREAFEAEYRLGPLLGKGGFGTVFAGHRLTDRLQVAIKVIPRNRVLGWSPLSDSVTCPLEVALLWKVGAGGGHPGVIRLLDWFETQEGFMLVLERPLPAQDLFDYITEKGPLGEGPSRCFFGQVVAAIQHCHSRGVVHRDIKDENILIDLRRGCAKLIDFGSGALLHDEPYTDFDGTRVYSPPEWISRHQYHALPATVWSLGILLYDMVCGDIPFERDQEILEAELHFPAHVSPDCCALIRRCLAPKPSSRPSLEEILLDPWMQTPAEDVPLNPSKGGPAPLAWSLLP
Source text: as §1, §2, §3, §4, §5

[3] = target: T1, PIM1 serine/threonine kinase (Homo sapiens, UniProt P11309); assay: PIM1 serine/threonine kinase inhibitory effect; assay type: biochemical; conditions: PIM1 serine/threonine kinase activity; ATP 40 μM; 30° C., 30 minutes
T1 construct: purchased Carna Bioscience, Inc
T1 sequence (P11309 whole entry): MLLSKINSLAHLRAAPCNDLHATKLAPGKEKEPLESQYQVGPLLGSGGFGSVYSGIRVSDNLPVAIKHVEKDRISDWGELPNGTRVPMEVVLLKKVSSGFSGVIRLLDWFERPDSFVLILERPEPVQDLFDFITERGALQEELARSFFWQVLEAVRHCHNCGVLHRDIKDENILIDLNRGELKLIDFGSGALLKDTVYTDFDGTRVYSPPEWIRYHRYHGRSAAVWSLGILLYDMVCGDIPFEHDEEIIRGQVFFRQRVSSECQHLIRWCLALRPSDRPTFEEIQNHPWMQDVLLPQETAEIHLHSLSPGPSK
Procedure, shortened: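 Compounds were tested in duplicate from 0.01 to 10000 nM final against PIM1 kinase (0.15 μg/ml). The reaction ran for 30 minutes at 30° C with 40 μM ATP and 0.5 μM biotin-tagged substrate at pH 7.0. Phosphorylation was read by time-resolved FRET (OD665/OD620) after 1 h; IC50 by non-linear fit.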

[4] = target: PIM1 transgenic cells (Ba/F3) (Homo sapiens, UniProt P11309); assay: Proliferation inhibitory effect on PIM1 transgenic cells; assay type: cell-based, mouse; conditions: proliferation inhibition, 72 hours, Cell Counting Kit-8, read-out: PIM1 IC50
PIM1 transgenic cells (Ba/F3), sequence (P11309 whole entry, stated change not applied): as the sequence (P11309 whole entry) above
Procedure, shortened: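 Mouse Ba/F3 pro-B cells were retrovirally transduced with human PIM1 so that their proliferation depends on PIM1. Cells were treated with compound at 1–10000 nM final for 72 h, then read by CCK-8 (OD450−OD650). Inhibition was set against DMSO (0%) and no-cell blank (100%), and IC50 was obtained by two-parameter logistic regression.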

Row | SMILES | GI50 [1] | GI50 [2] | IC50 [3] | GI50 [4]
1 | C[C@H](Nc1cc(-c2n[nH]c(=O)o2)cc(F)c1C(F)(F)F)C1CCNCC1.Cl [Example 75, 5-[3-fluoro-5-{[(1S)-1-(piperidin-4-yl)ethyl]amino}-4-(trifluoromethyl)phenyl]-1,3,4-oxadiazol-2(3H)-one hydrochloride] | 120 nM | 620 nM | 1.4 nM | 24 nM
2 | C[C@H](Nc1cc(-c2n[nH]c(=O)o2)cc(F)c1OC(F)(F)F)C1CCNCC1.Cl [Example 202, 5-[3-fluoro-5-{[(1S)-1-(piperidin-4-yl)ethyl]amino}-4-(trifluoromethoxy)phenyl]-1,3,4-oxadiazol-2(3H)-one hydrochloride] | 78 nM | 790 nM | 1.5 nM | 26 nM
